ChEMBL document CHEMBL1152151, “Synthesis and preliminary pharmacological evaluation of N-2-(4-(4-(2-substitutedthiazol-4-yl) piperazin-1-yl)-2-oxoethyl)acetamides as novel atypical antipsychotic agents” (Bioorg Med Chem Lett, 2008)
The source made the active and inactive calls. The rule behind the calls is not given here.

Key:
Mus musculus [1] = test: Inhibition of dopamine D2 receptor-mediated apomorphine-induced cage climbing behavior in Swiss albino mouse at 10 mg/kg measured on 20 mins; type: functional
Mus musculus [2] = organism: Mus musculus; test: Toxic cataleptic effect in Swiss albino mouse assessed as maximum average cataleptic time; type: toxicity, organism-based; conditions: in vivo
Mus musculus [3] = test: Inhibition of dopamine D2 receptor-mediated apomorphine-induced cage climbing behavior in Swiss albino mouse at 10 mg/kg measured on 10 mins; type: functional
Mus musculus [4] = test: Ratio of inhibition of quipazine-induced head twitches to inhibition of apomorphine-induced cage climbing behavior in Swiss albino mouse at 10 mg/kg; type: functional
Mus musculus [5] = test: Inhibition of 5HT2A receptor-mediated quipazine-induced head twitches in Swiss albino mouse at 10 mg/kg; type: functional
Mus musculus [6] = organism: Mus musculus; test: Toxic cataleptic effect against Swiss albino mouse; type: toxicity, organism-based; conditions: in vivo
Mus musculus [7] = test: Inhibition of dopamine D2 receptor-mediated apomorphine-induced cage climbing behavior in Swiss albino mouse at 10 mg/kg; type: functional
Mus musculus [8] = test: Inhibition of dopamine D2 receptor-mediated apomorphine-induced cage climbing behavior in Swiss albino mouse at 10 mg/kg measured on 30 mins; type: functional; conditions: 0.5 h
Mus musculus [9] = test: Inhibition of dopamine D2 receptor-mediated apomorphine-induced cage climbing behavior in Swiss albino mouse at 1 mg/kg, ip; type: functional, organism-based; parameters: dose 1 mg/kg
Mus musculus [10] = test: Inhibition of 5HT2A receptor-mediated quipazine-induced head twitches in Swiss albino mouse at 0.6 mg/kg, ip; type: functional, organism-based; parameters: dose 0.6 mg/kg

| Structure (SMILES) | inhibition in vivo at 10 mg/kg (Mus musculus [1]) [%] | Activity (Mus musculus [2]) [s] | inhibition in vivo at 10 mg/kg (Mus musculus [3]) [%] | Ratio (Mus musculus [4]) | inhibition in vivo at 10 mg/kg (Mus musculus [5]) [%] | Activity (Mus musculus [6]) | inhibition in vivo at 10 mg/kg (Mus musculus [7]) [%] | inhibition in vivo at 10 mg/kg (Mus musculus [8]) [%] | Activity (Mus musculus [9]) | Activity (Mus musculus [10]) |
| --- | --- | --- | --- | --- | --- | --- | --- | --- | --- | --- |
| CC(=O)NCC(=O)N1CCN(CCc2ccc(-c3csc(C)n3)cc2)CC1 | 65 | 4.62 | 70 | 0.2857 | 20 | Non-toxic | 70 | 70 | – | – |
| O=C(CCCN1CCC(O)(c2ccc(Cl)cc2)CC1)c1ccc(F)cc1 | – | – | – | – | – | – | – | – | Active | – |
| CNc1nc(-c2ccc(CCN3CCN(C(=O)CNC(C)=O)CC3)cc2)cs1 | 50 | 16.54 | 60 | 0.9 | 54 | Non-toxic | 60 | 60 | – | – |
| Cc1nc2n(c(=O)c1CCN1CCC(c3noc4cc(F)ccc34)CC1)CCCC2 [RISPERIDONE] | 91 | 2.54 | 91 | 1.0989 | 100 | Non-toxic | 91 | 90 | – | Active |
| CC(=O)NCC(=O)N1CCN(CCc2ccc(-c3nc(C)sc3C)cc2)CC1 | 65 | 5.12 | 65 | 0.8875 | 71 | Non-toxic | 80 | 80 | – | – |
